Where “and” joins values, the source holds several entries; their conditions need not be identical. Identical values can stand only once.

The text below walks through data of patent US20170334899A1, “AMINO-SUBSTITUTED ISOTHIAZOLES” (Bayer Pharma Aktiengesellschaft, priority 2014, published 2017).

The target in this test is T1, human kinase Mps-1 (Homo sapiens, UniProt P33981).
T1 construct: N-terminally GST-tagged human full length recombinant Mps-1 kinase; GST (N); purchased Invitrogen, Karslruhe, Germany PV4071
T1 sequence (P33981 1-857): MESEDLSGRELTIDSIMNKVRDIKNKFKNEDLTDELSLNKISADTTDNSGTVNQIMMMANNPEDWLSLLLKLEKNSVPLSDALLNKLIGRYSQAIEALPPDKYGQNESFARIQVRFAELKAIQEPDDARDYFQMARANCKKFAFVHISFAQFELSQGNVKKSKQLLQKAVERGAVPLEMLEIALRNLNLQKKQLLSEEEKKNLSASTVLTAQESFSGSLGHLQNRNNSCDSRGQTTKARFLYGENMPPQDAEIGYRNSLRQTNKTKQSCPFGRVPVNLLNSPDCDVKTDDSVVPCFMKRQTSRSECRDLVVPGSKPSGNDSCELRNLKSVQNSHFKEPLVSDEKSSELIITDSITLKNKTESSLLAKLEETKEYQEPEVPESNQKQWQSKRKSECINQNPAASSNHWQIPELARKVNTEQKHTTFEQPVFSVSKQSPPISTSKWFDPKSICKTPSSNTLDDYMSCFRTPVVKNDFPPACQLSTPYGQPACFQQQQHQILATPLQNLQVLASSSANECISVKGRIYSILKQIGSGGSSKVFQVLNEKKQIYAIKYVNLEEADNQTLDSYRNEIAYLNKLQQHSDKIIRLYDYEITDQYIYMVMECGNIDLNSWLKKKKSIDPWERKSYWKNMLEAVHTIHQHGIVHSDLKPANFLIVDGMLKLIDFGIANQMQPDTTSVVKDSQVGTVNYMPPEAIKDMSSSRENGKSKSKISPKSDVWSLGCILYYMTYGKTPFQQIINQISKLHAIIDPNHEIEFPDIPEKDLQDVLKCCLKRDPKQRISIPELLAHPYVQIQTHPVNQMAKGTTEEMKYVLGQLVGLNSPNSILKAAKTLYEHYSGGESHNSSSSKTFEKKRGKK
Briefly: Mps-1 kinase assay (TR-FRET). It counts as biochemical. As to conditions: Mps-1 TR-FRET kinase assay; avg; read-out: Mps1 avg (IC50 [mol/l]). In outline:
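Inhibition normalised between uninhibited reaction (0%) and enzyme-free wells (100%), using the blank-corrected TR-FRET 665/620 nm ratio after EDTA stop. Reaction: ~0.5 nM GST-Mps-1 full length, 10 μM ATP, 1 μM biotin-peptide, 60 min at 22 °C, after 15 min compound pre-binding, pH 7.7.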
In general terms: In TR-FRET formats the signal depends on donor and acceptor labels being close together.
On to `CNC(=O)c1ccc(NC(=O)c2c(C)nsc2Nc2ccc(C#N)cn2)cc1F` [Example 208, 5-[(5-cyanopyridin-2-yl)amino]-N-[3-fluoro-4-(methylcarbamoyl)phenyl]-3-methyl-1,2-thiazole-4-carboxamide], for which the IC50 is > 20 µM.
To `COc1ccc(NC(=O)c2c(C)nsc2Nc2cnc3ccccc3n2)c(CC#N)n1` [Example 235, N-[2-(cyanomethyl)-6-methoxypyridin-3-yl]-3-methyl-5-(quinoxalin-2-ylamino)-1,2-thiazole-4-carboxamide] belongs 12 µM; to `CNS(=O)(=O)c1ccc(NC(=O)c2c(C)nsc2Nc2cncc(C(F)(F)F)n2)cc1` [Example 211, 3-methyl-N-[4-(methylsulfamoyl)phenyl]-5-{[6-(trifluoromethyl)pyrazin-2-yl]amino}-1,2-thiazole-4-carboxamide], > 20 µM and 19 µM.
`CCN(CC)CCNC(=O)c1cccc(NC(=O)c2c(C)nsc2Nc2cnccn2)c1` [Example 247, N-(3-{[2-(diethylamino)ethyl]carbamoyl}phenyl)-3-methyl-5-(pyrazin-2-ylamino)-1,2-thiazole-4-carboxamide]: the IC50 was > 20 µM.
Under `Cc1nsc(Nc2cnc3ccccc3n2)c1C(=O)Nc1ccc(OC2CCNCC2)nc1` [Example 19, 3-Methyl-N-[6-(piperidin-4-yloxy)pyridin-3-yl]-5-(quinoxalin-2-ylamino)-1,2-thiazole-4-carboxamide] stands ≥ 20 µM; under `Cc1nsc(Nc2cncc(C(F)(F)F)n2)c1C(=O)Nc1ccc(OCC2CCN(C(=O)OC(C)(C)C)CC2)nc1` [Example 226, tert-butyl 4-{[(5-{[(3-methyl-5-{[6-(trifluoromethyl)pyrazin-2-yl]amino}-1,2-thiazol-4-yl)carbonyl]amino}pyridin-2-yl)oxy]methyl}piperidine-1-carboxylate], > 20 µM.
To `Cc1nsc(Nc2ccc(C#N)cn2)c1C(=O)Nc1ccc(OCCC(=O)OC(C)(C)C)nc1` [Example 199, tert-butyl 3-({5-[({5-[(5-cyanopyridin-2-yl)amino]-3-methyl-1,2-thiazol-4-yl}carbonyl)amino]pyridin-2-yl}oxy)propanoate] belongs > 20 µM.
Under `Cc1nsc(Nc2cnc3ccccc3n2)c1C(=O)Nc1ccc(NCCNC(=O)OC(C)(C)C)nc1` [Example 244, tert-butyl (2-{[5-({[3-methyl-5-(quinoxalin-2-ylamino)-1,2-thiazol-4-yl]carbonyl}amino)pyridin-2-yl]amino}ethyl)carbamate] stands > 20 µM.
In the case of `Cc1nsc(Nc2cnc3ccccc3n2)c1C(=O)Nc1ccc(OCCC(=O)OC(C)(C)C)nc1` [Example 198, tert-butyl 3-{[5-({[3-methyl-5-(quinoxalin-2-ylamino)-1,2-thiazol-4-yl]carbonyl}amino)pyridin-2-yl]oxy}propanoate], the IC50 turned out to be 4.6 µM.
Under `Cc1nsc(Nc2cncc(C(F)(F)F)n2)c1C(=O)Nc1ccc(C(=O)NC2CCN(C(=O)OC(C)(C)C)CC2)cc1` [Example 222, tert-butyl 4-[(4-{[(3-methyl-5-{[6-(trifluoromethyl)pyrazin-2-yl]amino}-1,2-thiazol-4-yl)carbonyl]amino}benzoyl)amino] piperidine-1-carboxylate] stands > 20 µM; under `Cc1nsc(Nc2cnc3ccccc3n2)c1C(=O)Nc1ccc(Oc2cccnc2)nc1` [Example 231, 3-methyl-N-[6-(pyridin-3-yloxy)pyridin-3-yl]-5-(quinoxalin-2-ylamino)-1,2-thiazole-4-carboxamide], > 20 µM; under `Cc1nsc(Nc2cnc3ccccc3n2)c1C(=O)Nc1ccc(C(=O)OC(C)(C)C)cc1` [Example 181, tert-butyl 4-({[3-methyl-5-(quinoxalin-2-ylamino)-1,2-thiazol-4-yl]carbonyl}amino)benzoate], > 20 µM.
To `Cc1nsc(Nc2cnc3ccccc3n2)c1C(=O)Nc1ccc(C(=O)O)cc1` [Example 187, 4-({[3-methyl-5-(quinoxalin-2-ylamino)-1,2-thiazol-4-yl]carbonyl}amino)benzoic acid] belongs 5.4 µM.
